Reference: PubChem BioAssay AID2060499 (Molecular Pharmacology Branch, DTP, NCI, 2025)

Tested on: 777334-354-R2-J4-PDC tumor spheroids with HUVEC/MSC, viability
Assay: Anticancer human tumor 777334-354-R2-J4-PDC patient-derived pancreatic adenocarcinoma cell line growth inhibition [GQUAD]
Details: for IC50: curve of first compound; for viability, T/C: stronger effect = lower value; active = viability on the fitted dose curve at most 10% of control; inactive = the rest
In short: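 Multi-cell-type spheroids of tumor cells with HUVEC and mesenchymal stem cells, treated with drug combinations. Concentrations descend in half-log steps from near clinical Cmax, or from 10 microM where Cmax is unknown; viability read-out.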

[1] = second compound 0.0316 µM, first compound 0.0316 µM
[2] = second compound 0.0316 µM, first compound 0.1 µM
[3] = second compound 0.0316 µM, first compound 0.316 µM
[4] = second compound 0.0316 µM, first compound 1 µM
[5] = second compound 0.0316 µM, first compound 3.16 µM
[6] = second compound 0.0316 µM, first compound 10 µM
[7] = second compound 0.1 µM, first compound 0.0316 µM
[8] = second compound 0.1 µM, first compound 0.1 µM
[9] = second compound 0.1 µM, first compound 0.316 µM
[10] = second compound 0.1 µM, first compound 1 µM
[11] = second compound 0.1 µM, first compound 3.16 µM
[12] = second compound 0.1 µM, first compound 10 µM
[13] = second compound 0.316 µM, first compound 0.0316 µM
[14] = second compound 0.316 µM, first compound 0.1 µM
[15] = second compound 0.316 µM, first compound 0.316 µM
[16] = second compound 0.316 µM, first compound 1 µM
[17] = second compound 0.316 µM, first compound 3.16 µM
[18] = second compound 0.316 µM, first compound 10 µM
[19] = second compound 1 µM, first compound 0.0316 µM
[20] = second compound 1 µM, first compound 0.1 µM
[21] = second compound 1 µM, first compound 0.316 µM
[22] = second compound 1 µM, first compound 1 µM
[23] = second compound 1 µM, first compound 3.16 µM
[24] = second compound 1 µM, first compound 10 µM
[25] = second compound 3.16 µM, first compound 0.0316 µM
[26] = second compound 3.16 µM, first compound 0.1 µM
[27] = second compound 3.16 µM, first compound 0.316 µM
[28] = second compound 3.16 µM, first compound 1 µM
[29] = second compound 3.16 µM, first compound 3.16 µM
[30] = second compound 3.16 µM, first compound 10 µM
[31] = second compound 10 µM, first compound 0.0316 µM
[32] = second compound 10 µM, first compound 0.1 µM
[33] = second compound 10 µM, first compound 0.316 µM
[34] = second compound 10 µM, first compound 1 µM
[35] = second compound 10 µM, first compound 3.16 µM
[36] = second compound 10 µM, first compound 10 µM
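Note: spheroids exposed to compounds for 7 days before readout.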

CC(C)(O)C1CCC(Nc2ccc3ncc(-c4cccc(C(F)(F)F)c4)n3n2)CC1 (stereo not drawn) + Cc1cnc(CNC(=O)c2c(=O)c3ccc(N4CCCN(C)CC4)nc3n3c2sc2ccccc23)cn1
806 nM: IC50 (second compound 0.1 µM)
838 nM: IC50 (second compound 0.316 µM)
inactive: viability, T/C [1] 105% | viability, T/C [2] 74% | viability, T/C [3] 94.5% | viability, T/C [4] 44.8% | viability, T/C [5] 27.7% | viability, T/C [6] 35.2% | viability, T/C [7] 85% | viability, T/C [8] 74% | viability, T/C [9] 79.5% | viability, T/C [10] 43.2% | viability, T/C [11] 29.1% | viability, T/C [12] 35.4% | viability, T/C [13] 80.8% | viability, T/C [14] 71.5% | viability, T/C [15] 71.5% | viability, T/C [16] 46.5% | viability, T/C [17] 29.1% | viability, T/C [18] 31.3% | viability, T/C [19] 63% | viability, T/C [20] 67.4% | viability, T/C [21] 67% | viability, T/C [22] 48.6% | viability, T/C [23] 33% | viability, T/C [24] 30.7% | viability, T/C [25] 61.4% | viability, T/C [26] 68.9% | viability, T/C [27] 56.9% | viability, T/C [28] 48.4% | viability, T/C [29] 24.4% | viability, T/C [30] 23.9% | viability, T/C [31] 51.5% | viability, T/C [32] 40.1% | viability, T/C [33] 48.3% | viability, T/C [34] 36.1%
active: viability, T/C [35] 0.23% | viability, T/C [36] 0.19%
776 nM: IC50 (second compound 3.16 µM)
913 nM: IC50 (second compound 1 µM)
880 nM: IC50 (second compound 0.0316 µM)
< 31.6 nM: IC50 (second compound 10 µM)

COc1ncnc(C2CC2)c1-c1ncc2cnn(Cc3ccc(-c4nc(C(F)(F)F)cn4C(C)C)cc3)c2n1 + Cc1cnc(CNC(=O)c2c(=O)c3ccc(N4CCCN(C)CC4)nc3n3c2sc2ccccc23)cn1
inactive: viability, T/C [1] 106% | viability, T/C [2] 94.8% | viability, T/C [3] 101% | viability, T/C [4] 92.5% | viability, T/C [5] 106% | viability, T/C [6] 95% | viability, T/C [7] 91.5% | viability, T/C [8] 83.8% | viability, T/C [9] 97.6% | viability, T/C [10] 80.8% | viability, T/C [11] 92.4% | viability, T/C [12] 90.3% | viability, T/C [13] 82.8% | viability, T/C [14] 81% | viability, T/C [15] 72% | viability, T/C [16] 85.8% | viability, T/C [17] 87.8% | viability, T/C [18] 86.5% | viability, T/C [19] 65.3% | viability, T/C [20] 75.7% | viability, T/C [21] 67.4% | viability, T/C [22] 76.3% | viability, T/C [23] 77.4% | viability, T/C [24] 82.1% | viability, T/C [25] 64.3% | viability, T/C [26] 73.5% | viability, T/C [27] 55% | viability, T/C [28] 65.7% | viability, T/C [29] 80.8% | viability, T/C [30] 70.3% | viability, T/C [31] 55.5% | viability, T/C [32] 63.6% | viability, T/C [33] 57.9% | viability, T/C [34] 59.2% | viability, T/C [35] 58.2% | viability, T/C [36] 56.7%
> 10000 nM: IC50 (second compound 0.0316 µM) | IC50 (second compound 0.1 µM) | IC50 (second compound 0.316 µM) | IC50 (second compound 1 µM) | IC50 (second compound 3.16 µM) | IC50 (second compound 10 µM)

Cc1[nH]c2ccccc2c1CCNCc1ccc(/C=C/C(=O)NO)cc1 + Cc1cnc(CNC(=O)c2c(=O)c3ccc(N4CCCN(C)CC4)nc3n3c2sc2ccccc23)cn1
inactive: viability, T/C (second compound 0.0316 µM, first compound 0.000999 µM) 95.1% | viability, T/C (second compound 0.0316 µM, first compound 0.00316 µM) 89.1% | viability, T/C (second compound 0.0316 µM, first compound 0.00999 µM) 93.1% | viability, T/C [1] 73.6% | viability, T/C (second compound 0.0316 µM, first compound 0.0999 µM) 57.9% | viability, T/C [3] 35.5% | viability, T/C (second compound 0.1 µM, first compound 0.000999 µM) 83.1% | viability, T/C (second compound 0.1 µM, first compound 0.00316 µM) 69.4% | viability, T/C (second compound 0.1 µM, first compound 0.00999 µM) 68.1% | viability, T/C [7] 73.2% | viability, T/C (second compound 0.1 µM, first compound 0.0999 µM) 58.9% | viability, T/C [9] 35.3% | viability, T/C (second compound 0.316 µM, first compound 0.000999 µM) 73.7% | viability, T/C (second compound 0.316 µM, first compound 0.00316 µM) 79.5% | viability, T/C (second compound 0.316 µM, first compound 0.00999 µM) 58.2% | viability, T/C [13] 69.3% | viability, T/C (second compound 0.316 µM, first compound 0.0999 µM) 53.7% | viability, T/C [15] 32.9% | viability, T/C (second compound 1 µM, first compound 0.000999 µM) 70.8% | viability, T/C (second compound 1 µM, first compound 0.00316 µM) 66.2% | viability, T/C (second compound 1 µM, first compound 0.00999 µM) 68.2% | viability, T/C [19] 58.1% | viability, T/C (second compound 1 µM, first compound 0.0999 µM) 56% | viability, T/C [21] 26.4% | viability, T/C (second compound 3.16 µM, first compound 0.000999 µM) 58% | viability, T/C (second compound 3.16 µM, first compound 0.00316 µM) 58.6% | viability, T/C (second compound 3.16 µM, first compound 0.00999 µM) 59.4% | viability, T/C [25] 53.8% | viability, T/C (second compound 3.16 µM, first compound 0.0999 µM) 50.3% | viability, T/C [27] 18.6% | viability, T/C (second compound 10 µM, first compound 0.000999 µM) 53.2% | viability, T/C (second compound 10 µM, first compound 0.00316 µM) 46.2% | viability, T/C (second compound 10 µM, first compound 0.00999 µM) 51.7% | viability, T/C [31] 46.1% | viability, T/C (second compound 10 µM, first compound 0.0999 µM) 42.6%
155 nM: IC50 (second compound 0.1 µM)
89.3 nM: IC50 (second compound 3.16 µM)
144 nM: IC50 (second compound 0.0316 µM)
active: viability, T/C [33] 1.07%
114 nM: IC50 (second compound 1 µM)
122 nM: IC50 (second compound 0.316 µM)
< 0.999 nM: IC50 (second compound 10 µM)

O=C(NO)c1cnc(N2CCN(S(=O)(=O)c3ccc4ccccc4c3)CC2)nc1 + Cc1cnc(CNC(=O)c2c(=O)c3ccc(N4CCCN(C)CC4)nc3n3c2sc2ccccc23)cn1
537 nM: IC50 (second compound 0.316 µM)
active: viability, T/C [5] 3.07% | viability, T/C [6] 0.21% | viability, T/C [12] 0.33% | viability, T/C [17] 5.34% | viability, T/C [18] 0.23% | viability, T/C [23] 4.8% | viability, T/C [24] 0.13% | viability, T/C [29] 0.68% | viability, T/C [30] 0.12% | viability, T/C [34] 0.22% | viability, T/C [35] 2.65% | viability, T/C [36] 0.22%
inactive: viability, T/C [1] 83.7% | viability, T/C [2] 71.9% | viability, T/C [3] 77.2% | viability, T/C [4] 39.7% | viability, T/C [7] 90.3% | viability, T/C [8] 63.1% | viability, T/C [9] 55.2% | viability, T/C [10] 36.6% | viability, T/C [11] 5.24% | viability, T/C [13] 69.3% | viability, T/C [14] 72% | viability, T/C [15] 53.8% | viability, T/C [16] 42.7% | viability, T/C [19] 65.6% | viability, T/C [20] 60% | viability, T/C [21] 55% | viability, T/C [22] 37.7% | viability, T/C [25] 49% | viability, T/C [26] 53.8% | viability, T/C [27] 50.2% | viability, T/C [28] 31.5% | viability, T/C [31] 50.2% | viability, T/C [32] 44.8% | viability, T/C [33] 48.4%
474 nM: IC50 (second compound 1 µM)
< 31.6 nM: IC50 (second compound 10 µM)
726 nM: IC50 (second compound 0.0316 µM)
331 nM: IC50 (second compound 3.16 µM)
332 nM: IC50 (second compound 0.1 µM)
